Values joined by “and” are separate entries in the source; they are usually repeats but may differ in a detail not shown here. Equal values may be shown once. Read-outs that look alike come from different tables or passages of the source. Some results are limits rather than exact numbers.

Data set [1] concerns HCMV. The data set is described as follows: HCMV plaque reduction assay (Towne strain) in HFF cells. The data set is classed as cell-based, Human cytomegalovirus. As for the experimental part:
(§1) Stock HCMV was prepared by infecting HFF cells at a multiplicity of infection (m.o.i.) of <0.01 plaque-forming units (p.f.u.) per cell as detailed previously (see Turk, S. R.; Shipman, C., Jr.; Nassiri, M. R.; Genzingler, G.; Krawczyk, S. H.; Townsend, L. B.; Drach, J. C. Pyrrolo[2,3-d]pyrimidine Nucleosides as Inhibitors of Human Cytomegalovirus, Antimicrob. Agents Chemother. 1987, 31, 544-550). High titer HSV-1 stocks were prepared by infecting KB cells (ATCC) at an m.o.i. of <0.1 also as detailed previously (see Turk, S. R.; Shipman, C., Jr.; Nassiri, M. R.; Genzingler, G.; Krawczyk, S. H.; Townsend, L. B.; Drach, J. C. Pyrrolo[2,3-d]pyrimidine Nucleosides as Inhibitors of Human Cytomegalovirus, Antimicrob. Agents Chemother. 1987, 31, 544-550). Virus titers were determined using monolayer cultures of HFF cells for HCMV and monolayer cultures of BSC-1 cells for HSV-1 as described earlier (see Prichard, M. N.; Turk, S. R.; Coleman, L. A.; Engelhardt, S. L.; Shipman, C., Jr.; Drach, J. C. A Microtiter Virus Yield Reduction Assay for the Evaluation of Antiviral Compounds Against Human Cytomegalovirus and Herpes Simplex Virus. J. Virol. Methods 1990, 28, 101-106). Briefly, HFF or BSC-1 cells were planted as described above in 96-well cluster dishes and incubated overnight at 37° C. The next day cultures were inoculated with HCMV or HSV-1 and serially diluted 1:3 across the remaining eleven columns of the 96-well plate. After virus adsorption the inoculum was replaced with fresh medium and cultures were incubated for seven days for HCMV, two or three days for HSV-1. Plaques were enumerated under 20-fold magnification in wells having the dilution which gave 5 to 20 plaques per well. Virus titers were calculated according to the following formula: Titer (p.f.u./mL)=number of plaques×5×3^n; where n represents the nth dilution of the virus used to infect the well in which plaques were enumerated.
(§2) HFF cells in 24-well cluster dishes were infected with approximately 100 p.f.u. of HCMV per cm^2 cell sheet using the procedures detailed above. Following virus adsorption, compounds dissolved in growth medium were added to duplicate wells in four to eight selected concentrations. After incubation at 37° C. for 7 to 10 days, cell sheets were fixed, stained with crystal violet and microscopic plaques enumerated as described above.
(§3) Dose-response relationships were constructed by linearly regressing the percent inhibition of parameters derived in the preceding sections against log drug concentrations. Fifty-percent inhibitory concentrations (IC50's) or IC90's were calculated from the regression lines. Samples containing positive controls (acyclovir for HSV-1, ganciclovir for HCMV, and 2-acetylpyridine thiosemicarbazone for cytotoxicity) were used in all assays.

The test system of data set [2] is HCMV. The data set is described as follows: HCMV yield reduction assay (Towne strain) in HFF cells. It is filed as cell-based, Human cytomegalovirus. As for the experimental part: as §1
HFF cells were planted as described above in 96-well cluster dishes, incubated overnight, medium removed and the cultures were inoculated with HCMV at a m.o.i. of 0.5 to 1 p.f.u. per cell as reported elsewhere (see Prichard, M. N.; Turk, S. R.; Coleman, L. A.; Engelhardt, S. L.; Shipman, C., Jr.; Drach, J. C. A Microtiter Virus Yield Reduction Assay for the Evaluation of Antiviral Compounds Against Human Cytomegalovirus and Herpes Simplex Virus. J. Virol. Methods 1990, 28, 101-106). After virus adsorption, inoculum was replaced with 0.2 mL of fresh medium containing test compounds. The first row of 12 wells was left undisturbed and served as virus controls. Each well in the second row received an additional 0.1 mL of medium with test compound at three times the desired final concentration. The contents of the 12 wells were mixed by repeated pipetting and then serially diluted 1:3 along the remaining wells. In this manner, six compounds could be tested in duplicate on a single plate with concentrations from […]. Plates were incubated at 37° C. for seven days, subjected to one cycle of freezing and thawing; aliquots from each of the eight wells of a given column were transferred to the first column of a fresh 96-well monolayer culture of HFF cells. Contents were mixed and serially diluted 1:3 across the remaining eleven columns of the secondary plate. Each column of the original primary plate was diluted across a separate plate in this manner. Cultures were incubated, plaques were enumerated, and titers calculated as described above.
as §3

A further data set has as its system HSV-1. The data set is described as follows: HSV-1 ELISA in BSC-1 cells. It is filed as cell-based, herpes simplex virus 1. Particulars: Human alphaherpesvirus 1, quadruplicate wells, read-out: HSV-1 ELISA 50% Inhibitory Concentration (IC50). As for the experimental part:
An ELISA was employed (see Prichard, M. N.; Shipman, C., Jr. A Three Dimensional Model to Analyze Drug-Drug Interactions. Antiviral Res. 1990, 14, 181-206) to detect HSV-1. Ninety-six-well cluster dishes were planted with 10,000 BSC-1 cells per well in 200 μL per well of MEM(E) plus 10% calf serum. After overnight incubation at 37° C., selected drug concentrations in quadruplicate and HSV-1 at a concentration of 100 p.f.u./well were added. Following a 3-day incubation at 37° C., medium was removed, plates were blocked, rinsed, and horse radish peroxidase conjugated rabbit anti-HSV-1 antibody was added. Following removal of the antibody containing solution, plates were rinsed, and then developed by adding 150 μL per well of a solution of tetramethylbenzidine as substrate. The reaction was stopped with H2SO4 and absorbance was read at 450 and 570 nm. Drug effects were calculated as a percentage of the reduction in absorbance in the presence of each drug concentration compared to absorbance obtained with virus in the absence of drug.
as §3
For orientation: ELISA stands for enzyme-linked immunosorbent assay.

The nature of data set [3]: Visual cytotoxicity in stationary HFF cells. The data set is classed as cell-based. The settings on record: human. As for the experimental part: (§4) Two different assays were used for routine cytotoxicity testing. (i) Cytotoxicity produced in stationary HFF cells was determined by microscopic inspection of cells not affected by the virus used in plaque assays (see Turk, S. R.; Shipman, C., Jr.; Nassiri, M. R.; Genzingler, G.; Krawczyk, S. H.; Townsend, L. B.; Drach, J. C. Pyrrolo[2,3-]pyrimidine Nucleosides as Inhibitors of Human Cytomegalovirus, Antimicrob. Agents Chemother. 1987, 31, 544-550). (ii) The effect of compounds during two population doublings of KB cells was determined by crystal violet staining and spectrophotometric quantitation of dye eluted from stained cells as described earlier (see Prichard, M. N.; Prichard, L. E., Baguley, W. A.; Nassiri, M. R.; Shipman, C., Jr. Three-Dimensional Analysis of the Synergistic Cytotoxicity of Ganciclovir and Zidovudine. Antiviral Res. 1991, 35, 1060-1065). Briefly, 96-well cluster dishes were planted with KB cells at 3000-5000 cells per well. After overnight incubation at 37° C., test compound was added in quadruplicate at six to eight concentrations. Plates were incubated at 37° C. for 48 hours in a CO2 incubator, rinsed, fixed with 95% ethanol, and stained with 0.1% crystal violet. Acidified ethanol was added and plates read at 570 nm in a spectrophotometer designed to read 96-well ELISA assay plates.
as §3

A short description of data set [4]: Inhibition of KB cell growth (crystal violet). The data set is classed as cell-based. Particulars: human. As for the experimental part: as §4, §3
The subject of another data set is HCMV Strain AD169. The data set is described as follows: HCMV plaque reduction assay, strain AD169. It is filed as cell-based, Human cytomegalovirus. The settings on record: Human betaherpesvirus 5, Table 3, read-out: HCMV Strain AD169 plaque 50% Inhibitory Concentration (IC50). As for the experimental part: as §2, §3
The mark [5] stands for this setting: Human betaherpesvirus 5, HFF, Table 3, same data as Table 2, read-out: HCMV Strain Towne plaque 50% Inhibitory Concentration (IC50).
Where [6] appears, read: Human betaherpesvirus 5, Table 2, HFF cells, duplicate, read-out: HCMV plaque 50% Inhibitory Concentration (IC50).
Setting [7] is: Human betaherpesvirus 5, HFF, Table 3, same data as Table 2, read-out: HCMV Strain Towne yield 90% Inhibitory Concentration (IC90).
Setting [8] is: Human betaherpesvirus 5, Table 2, HFF cells, duplicate, read-out: HCMV yield 90% Inhibitory Concentration (IC90).
Setting [9] is: HFF cells, scored at time of HCMV plaque enumeration, read-out: Cytotoxicity visual (IC50).
Setting [10] is: KB cells, KB cell growth, 48 hours, quadruplicate, read-out: Cytotoxicity growth (IC50).

Regarding `OC[C@@H]1O[C@@H](n2c(Cl)nc3cc(Cl)c(Cl)cc32)[C@H](O)[C@@H]1O` [Compound 4a, 1-(α-L-Lyxofuranosyl)-2,5,6-trichlorobenzimidazole], the IC50 with HCMV [1] (setting [5]) was 18 µM; in the data set with HCMV [1] (setting [6]), 18 µM; in the data set on HSV-1 it was more than 100 µM; in data set [3], 190 µM; with HCMV Strain AD169, 2.6 µM. Further, the IC90 in the data set with HCMV [2] (setting [7]) and in the data set with HCMV [2] (setting [8]) was 3.4 µM in each case. Further, the IC50 at 48 h in data set [4] is more than 100 µM.

`OC[C@H]1O[C@H](n2c(Cl)nc3cc(Cl)c(Cl)cc32)[C@@H](O)[C@H]1O` [Compound 4b, 1-(α-D-Lyxofuranosyl)-2,5,6-trichlorobenzimidazole]: the IC50 is 18 µM in the data set with HCMV [1] (setting [5]); 18 µM in the data set with HCMV [1] (setting [6]); 90 µM in the data set on HSV-1; more than 100 µM in data set [3]; 9 µM with HCMV Strain AD169. Besides, the IC90 in the data set with HCMV [2] (setting [7]) and with HCMV [2] (setting [8]) was more than 100 µM each time. Besides, the IC50 at 48 h in data set [4] is more than 100 µM.

For the molecule `OC[C@H]1O[C@H](n2c(Br)nc3cc(Cl)c(Cl)cc32)[C@@H](O)[C@H]1O` [Compound 5b, 2-Bromo-5,6-dichloro-1-(α-D-lyxofuranosyl)benzimidazole], the IC50 was 6 µM in the data set with HCMV [1] (setting [5]); 6 µM with HCMV [1] (setting [6]); 50 µM in the data set on HSV-1; more than 100 µM in data set [3] (setting [9]); 4.2 µM in the data set on HCMV Strain AD169. Also, the IC90 in the data set on HCMV [2] (setting [7]) and in the data set on HCMV [2] (setting [8]) was 65 µM in each case. The IC50 at 48 h in data set [4] (setting [10]) is more than 100 µM.

On to `CNc1nc2cc(Cl)c(Cl)cc2n1[C@H]1O[C@H](CO)[C@H](O)[C@@H]1O` [Compound 6b, 5,6-Dichloro-1-(α-D-lyxofuranosyl)-2-(methylamino)benzimidazole], for which the IC50 (in the data set with HCMV [1] (setting [6]); in the data set on HSV-1; in data set [3] (setting [9])) was more than 100 µM throughout. For the same molecule, the IC90 in the data set on HCMV [2] (setting [8]) was more than 100 µM. In addition, the IC50 at 48 h in data set [4] (setting [10]) was more than 100 µM.

Regarding `CC(C)Nc1nc2cc(Cl)c(Cl)cc2n1[C@@H]1O[C@@H](CO)[C@@H](O)[C@H]1O` [Compound 7a, 5,6-Dichloro-2-isopropylamino-1-(α-L-lyxofuranosyl)benzimidazole], the IC50 in the data set on HCMV [1] (setting [5]) is more than 100 µM; in the data set with HCMV [1] (setting [6]), more than 100 µM; with HSV-1, more than 100 µM; in data set [3] (setting [9]), more than 100 µM; in the data set on HCMV Strain AD169 it was 11 µM. The IC90 in the data set on HCMV [2] (setting [7]) and with HCMV [2] (setting [8]) was 19 µM each time. Besides, the IC50 at 48 h in data set [4] (setting [10]) is more than 100 µM.

Turning to `CC(C)Nc1nc2cc(Cl)c(Cl)cc2n1[C@H]1O[C@H](CO)[C@H](O)[C@@H]1O` [Compound 7b, 5,6-Dichloro-2-isopropylamino-1-(α-D-lyxofuranosyl)benzimidazole], the IC50 was 60 µM with HCMV [1] (setting [5]); 60 µM in the data set with HCMV [1] (setting [6]); more than 100 µM in the data set with HSV-1; more than 100 µM in data set [3] (setting [9]); 32 µM in the data set on HCMV Strain AD169. Moreover, the IC90 with HCMV [2] (setting [7]) and in the data set with HCMV [2] (setting [8]) was 17 µM throughout. Also, the IC50 at 48 h in data set [4] (setting [10]) was more than 100 µM.

One may read the melting point as the temperature, or range, at which the solid turns liquid. As to `OC[C@@H]1O[C@@H](n2c(NC3CC3)nc3cc(Cl)c(Cl)cc32)[C@H](O)[C@@H]1O` [Compound 8a, 2-Cyclopropylamino-5,6-dichloro-1-(α-L-lyxofuranosyl)benzimidazole], the melting point is 183 to 185 °C and 184 to 186 °C.

For the molecule `OC[C@H]1O[C@H](n2c(=S)[nH]c3cc(Cl)c(Cl)cc32)[C@@H](O)[C@H]1O` [Compound 9b, 5,6-Dichloro-1-(α-D-lyxofuranosyl)benzimidazol-2-thione], the IC50 (in the data set on HCMV [1] (setting [6]); in the data set with HSV-1; in data set [3] (setting [9])) was more than 100 µM throughout. Further, the IC90 in the data set with HCMV [2] (setting [8]) is more than 100 µM. Besides, the IC50 at 48 h in data set [4] (setting [10]) was more than 100 µM.

Turning to `CSc1nc2cc(Cl)c(Cl)cc2n1[C@@H]1O[C@@H](CO)[C@@H](O)[C@H]1O` [Compound 12a, 5,6-Dichloro-1-(α-L-lyxofuranosyl)-2-(methylthio)benzimidazole], the IC50 (in the data set with HCMV [1] (setting [6]); in the data set on HSV-1; in data set [3] (setting [9])) was more than 100 µM each time. Also, the IC50 at 48 h in data set [4] (setting [10]) is more than 100 µM.

`CSc1nc2cc(Cl)c(Cl)cc2n1[C@H]1O[C@H](CO)[C@H](O)[C@@H]1O` [Compound 12b, 5,6-Dichloro-1(α-D-lyxofuranosyl)-2-(methylthio)benzimidazole]: the IC50 (in the data set on HCMV [1] (setting [6]); in the data set with HSV-1; in data set [3] (setting [9])) was more than 100 µM each time. In addition, the IC90 in the data set on HCMV [2] (setting [8]) was more than 100 µM. Besides, in data set [4] (setting [10]), the IC50 at 48 h is more than 100 µM.

For the molecule `O=C(O)P(=O)(O)O` [foscarnet, reference compound], the results for the IC50 (in the data set with HCMV [1] (setting [6]); in data set [3] (setting [9])) were 39 ± 26 µM and more than 100 µM, respectively.

For the origin of these results see patent publication US6455506B1, “Lyxofuranosyl benzimidazoles as antiviral agents” (SmithKline Beecham Corporation, priority 1997, dated 2002).
